Measured values reported in paper PMC12409578 (ACS Omega, 2025).
“Also recorded” adds a separate entry of the source.

Columns and labels:
[1] = MTT cytotoxicity test on HUVEC cell line; format: cell-based; conditions: human, HUVEC cells (healthy cell line)
Description: Cell culture studies were conducted using the previously mentioned method , and HUVEC (healthy cell line) was grown for this study. After the cells were grown, the maximum dose accepted as 100 μM drug concentration was applied to the cell line for all compounds, and cell viability was determined. , The results were illustrated in Table .
The cytotoxic effect of all compounds by MTT analysis was performed to determine the proliferation on the HUVEC cell line. The MTT [3-(4,5-dimethyl-2-thiazol)-2,5-diphenyl-2H-tetrazolium bromide] cytotoxicity assay was employed according to previous studies with minor modifications. −

AChE (from electric eel) = target: T1, AChE (from electric eel) (Electrophorus electricus, UniProt O42275); experiment: biochemical; format: biochemical; conditions: for Ki: Lineweaver–Burk plots, mean ± SEM, read-out: AChE K I; for IC50: electric eel AChE, ATChI substrate, 37 °C, pH 8.0; for selectivity for AChE than for BChE (in words): from K I values / selectivity index
T1 construct: AChE (from electric eel); from tissue
T1 sequence (O42275 24-633): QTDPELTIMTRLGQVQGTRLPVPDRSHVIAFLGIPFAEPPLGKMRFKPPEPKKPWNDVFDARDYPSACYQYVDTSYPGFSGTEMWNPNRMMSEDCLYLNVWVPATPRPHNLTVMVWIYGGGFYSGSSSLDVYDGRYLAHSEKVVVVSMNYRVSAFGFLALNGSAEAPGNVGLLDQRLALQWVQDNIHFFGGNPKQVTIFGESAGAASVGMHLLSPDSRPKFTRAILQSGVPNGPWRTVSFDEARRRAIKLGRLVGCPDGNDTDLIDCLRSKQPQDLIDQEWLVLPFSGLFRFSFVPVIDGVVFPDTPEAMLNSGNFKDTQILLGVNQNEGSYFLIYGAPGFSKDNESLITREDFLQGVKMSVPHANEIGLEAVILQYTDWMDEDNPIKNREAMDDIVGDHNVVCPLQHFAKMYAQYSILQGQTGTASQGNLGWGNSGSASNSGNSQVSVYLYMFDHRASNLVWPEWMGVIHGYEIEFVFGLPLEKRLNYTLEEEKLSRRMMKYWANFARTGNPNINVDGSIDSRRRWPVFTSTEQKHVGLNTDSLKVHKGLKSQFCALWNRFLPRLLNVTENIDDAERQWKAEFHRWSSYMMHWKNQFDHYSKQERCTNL

BChE (from equine serum) = target: T2, BChE (from equine serum) (Equus caballus, UniProt P81908); experiment: biochemical; conditions: for Ki: Lineweaver–Burk plots, mean ± SEM, read-out: BChE K I; for IC50: equine serum BChE, BChI substrate, 37 °C, pH 8.0
T2 construct: BChE (from equine serum); from tissue; host or cells: equine serum
T2 sequence (P81908 whole entry): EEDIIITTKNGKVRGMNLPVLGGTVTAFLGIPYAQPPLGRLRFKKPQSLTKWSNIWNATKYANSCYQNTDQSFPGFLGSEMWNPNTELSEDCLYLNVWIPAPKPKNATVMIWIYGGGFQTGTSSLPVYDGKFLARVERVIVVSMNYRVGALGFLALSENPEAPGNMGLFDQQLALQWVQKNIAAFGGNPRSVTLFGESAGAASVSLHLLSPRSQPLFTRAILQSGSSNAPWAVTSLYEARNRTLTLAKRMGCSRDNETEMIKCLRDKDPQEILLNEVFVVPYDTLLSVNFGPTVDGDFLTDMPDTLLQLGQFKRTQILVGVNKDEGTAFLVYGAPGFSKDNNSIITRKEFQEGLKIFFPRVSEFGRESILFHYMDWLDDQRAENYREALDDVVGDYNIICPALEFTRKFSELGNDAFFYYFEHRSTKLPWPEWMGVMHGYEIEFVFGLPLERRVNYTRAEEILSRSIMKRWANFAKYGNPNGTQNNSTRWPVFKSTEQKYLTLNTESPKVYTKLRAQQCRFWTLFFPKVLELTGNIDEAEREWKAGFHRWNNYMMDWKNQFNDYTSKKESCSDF

SMILES | viability at 24 h, 100 µM [1] [%] | SI (selectivity index) = K I (AChE)/ K I (BChE) (AChE (from electric eel)) | Ki (AChE (from electric eel)) [µM] | IC50 (AChE (from electric eel)) [µM] | Ki (BChE (from equine serum)) [µM] | IC50 (BChE (from equine serum)) [µM] | selectivity for AChE than for BChE (in words) (AChE (from electric eel))
COc1ccc(C2=NN(c3nc(-c4ccccc4)cs3)C(c3ccc(C)s3)C2)cc1OC (stereo not drawn) [Compound 3a, 2-[3-(3,4-Dimethoxyphenyl)-5-(5-methylthiophen-2-yl)-4,5-dihydro-1H-pyrazol-1-yl]-4-phenylthiazole] | 99.2 | 0.660 | 0.886 ± 0.054 | 2.85 | 1.35 ± 0.083 | 4.3 | –
COc1ccc(C2=NN(c3nc(-c4ccc(C)cc4)cs3)C(c3ccc(C)s3)C2)cc1OC (stereo not drawn) [Compound 3b, 2-[3-(3,4-Dimethoxyphenyl)-5-(5-methylthiophen-2-yl)-4,5-dihydro-1H-pyrazol-1-yl]-4-(4-methylphenyl)thiazole] | 133 | 0.361 | 0.804 ± 0.062 | 4.01 | 2.22 ± 0.132 | 4.15 | more significant selectivity
COc1ccc(-c2csc(N3N=C(c4ccc(OC)c(OC)c4)CC3c3ccc(C)s3)n2)cc1 (stereo not drawn) [Compound 3c, 2-[3-(3,4-Dimethoxyphenyl)-5-(5-methylthiophen-2-yl)-4,5-dihydro-1H-pyrazol-1-yl]-4-(4-methoxyphenyl)thiazole] | 97.2 | 1.016 | 1.18 ± 0.083 | 4.81 | 1.16 ± 0.062 | 3.07 | –
COc1ccc(C2=NN(c3nc(-c4ccc(Cl)cc4)cs3)C(c3ccc(C)s3)C2)cc1OC (stereo not drawn) [Compound 3d, 2-[3-(3,4-Dimethoxyphenyl)-5-(5-methylthiophen-2-yl)-4,5-dihydro-1H-pyrazol-1-yl]-4-(4-chlorophenyl)thiazole] | 126 | 0.074 | 0.121 ± 0.007 | 0.523 | 1.64 ± 0.085 | 6.03 | more significant selectivity
COc1ccc(C2=NN(c3nc(-c4ccc(F)cc4)cs3)C(c3ccc(C)s3)C2)cc1OC (stereo not drawn) [Compound 3e, 2-[3-(3,4-Dimethoxyphenyl)-5-(5-methylthiophen-2-yl)-4,5-dihydro-1H-pyrazol-1-yl]-4-(4-fluorophenyl)thiazole] | 118 | 0.082 | 0.143 ± 0.084 | 0.385 | 1.72 ± 0.15 | 3.32 | more significant selectivity
COc1ccc(C2=NN(c3nc(-c4ccc([N+](=O)[O-])cc4)cs3)C(c3ccc(C)s3)C2)cc1OC (stereo not drawn) [Compound 3f, 2-[3-(3,4-Dimethoxyphenyl)-5-(5-methylthiophen-2-yl)-4,5-dihydro-1H-pyrazol-1-yl]-4-(4-nitrophenyl)thiazole] | 86 | 0.039 | 0.057 ± 0.003 | 0.382 | 1.46 ± 0.071 | 4.25 | highest selectivity for AChE; also recorded: more significant selectivity
COc1ccc(C2=NN(c3nc(-c4ccc(C#N)cc4)cs3)C(c3ccc(C)s3)C2)cc1OC (stereo not drawn) [Compound 3g, 2-[3-(3,4-Dimethoxyphenyl)-5-(5-methylthiophen-2-yl)-4,5-dihydro-1H-pyrazol-1-yl]-4-(4-cyanophenyl)thiazole] | 94 | 0.057 | 0.045 ± 0.002 | 0.338 | 0.789 ± 0.056 | 2.09 | highest selectivity for AChE; also recorded: more significant selectivity
COc1ccc(C2=NN(c3nc(-c4ccc(Cl)cc4Cl)cs3)C(c3ccc(C)s3)C2)cc1OC (stereo not drawn) [Compound 3h, 2-[3-(3,4-Dimethoxyphenyl)-5-(5-methylthiophen-2-yl)-4,5-dihydro-1H-pyrazol-1-yl]-4-(2,4-dichlorophenyl)thiazole] | 138 | 0.655 | 1.1 ± 0.058 | 5.46 | 1.69 ± 0.082 | 4.99 | –
COc1ccc(C2=NN(c3nc(-c4ccc(F)cc4F)cs3)C(c3ccc(C)s3)C2)cc1OC (stereo not drawn) [Compound 3i, 2-[3-(3,4-Dimethoxyphenyl)-5-(5-methylthiophen-2-yl)-4,5-dihydro-1H-pyrazol-1-yl]-4-(2,4-difluorophenyl)thiazole] | 86.4 | 0.332 | 0.529 ± 0.034 | 6.42 | 1.59 ± 0.078 | 7.37 | –
COc1ccc(C2=NN(c3nc(-c4cccc([N+](=O)[O-])c4)cs3)C(c3ccc(C)s3)C2)cc1OC (stereo not drawn) [Compound 3j, 2-[3-(3,4-Dimethoxyphenyl)-5-(5-methylthiophen-2-yl)-4,5-dihydro-1H-pyrazol-1-yl]-4-(3-nitrophenyl)thiazole] | 102 | 0.178 | 0.423 ± 0.023 | 4.03 | 2.37 ± 0.114 | 4.92 | more significant selectivity
